Source: the NIST ThermoML archive (doi:10.1016/j.tca.2006.01.020)
Numbers after ± are expanded uncertainties.

Details: 101.33 kPa, Crystal, Small (less than 1 g) adiabatic calorimetry

[Ba+2].[O-2].[O-2].[O-2].[Zr+4] [barium zirconium(IV) oxide]
Details	molar entropy [J/K/mol]
10 K	0.053 ± 0.024
20 K	0.666 ± 0.033
30 K	2.753 ± 0.13
40 K	6.284 ± 0.17
50 K	10.7 ± 0.23
60 K	15.67 ± 0.3
70 K	20.91 ± 0.38
80 K	26.27 ± 0.46
90 K	31.67 ± 0.59
100 K	37.05 ± 0.67
120 K	47.64 ± 0.83
140 K	57.88 ± 0.98
160 K	67.72 ± 1.1
180 K	77.16 ± 1.3
200 K	86.23 ± 1.4
220 K	94.92 ± 1.6
240 K	103.2 ± 1.7
260 K	111.2 ± 1.8
280 K	118.8 ± 1.9
298.15 K	125.5 ± 2
300 K	126.2 ± 2

[Ba+2].[Ce+4].[O-2].[O-2].[O-2] [barium cerium(IV) oxide]
Details	molar entropy [J/K/mol]
10 K	0.084 ± 0.025
20 K	1.242 ± 0.042
30 K	4.425 ± 0.15
40 K	9.136 ± 0.21
50 K	14.71 ± 0.29
60 K	20.8 ± 0.38
70 K	27.13 ± 0.48
80 K	33.51 ± 0.58
90 K	39.88 ± 0.71
100 K	46.2 ± 0.8
120 K	58.56 ± 0.99
140 K	70.43 ± 1.2
160 K	81.77 ± 1.4
180 K	92.55 ± 1.5
200 K	102.8 ± 1.7
220 K	112.5 ± 1.8
240 K	121.7 ± 2
260 K	130.4 ± 2.1
280 K	138.6 ± 2.2
298.15 K	145.8 ± 2.3
300 K	146.6 ± 2.4
